Measurements reported in US8129527B2, “Analogs of dehydrophenylahistins and their therapeutic use” (Nereus Pharmacuticals, Inc., priority 2006, dated 2012).
≈ marks a conversion by molar mass, not a printed value. Read-outs that look alike come from different tables or passages of the source.

Legend:
Candida albicans = assay: Antifungal susceptibility testing, broth dilution (MIC/MFC); type: cell-based
Protocol: (§1) Specifically, disclosed compounds were evaluated alongside commercially available microtubulin inhibitors as well as recognized antifungal agents.
(§2) Microorganisms against which these compounds were tested included: Candida albicans, Candida glabrata, Aspergillus fumigatus, Trichophyton rubrum, Trichophyton mentagrophytes, Epidermophyton floccosum. With the exception of Candida glabrata (one isolate), two isolates of each species were tested.
(§3) The minimum lethal concentration (MLC) was determined by plating […] from the MIC concentration and each concentration above the MIC. […] When a MIC was obtained, a minimum fungicidal concentration (MFC) was determined to assess the fungistatic/fungicidal nature of the compound.

Candida glabrata = assay: as above; type: cell-based; settings: Nakaseomyces glabratus; C. glabrata; read-out: MIC
Protocol: as §1, §2, §3

MAP-rich microtubules = assay: Microtubule mean length distributions, transmission electron microscopy; type: biochemical, bovine; settings: in words
Protocol: Transmission electron microscopy was used to determine the mean length distribution of microtubules in the absence or presence of tested agent. At 75 minutes and prior to sedimentation, 10 μl aliquots from the polymer mass experiments were fixed by dilution into 290 μl PEM100-buffered 0.2% glutaraldehyde. Thirty microliters of fixed sample was settled onto formvar-coated 150 ICG mesh electron microscope grids for 90 seconds. Excess sample was wicked off with Whatman filter paper. Thirty microliters of cytochrome C (1 mg/ml) was applied for 30 seconds to enhance protofilament resolution and facilitate negative staining. Uranyl acetate (1.5%) was applied for 20 seconds and the excess was wicked off Grids were viewed in a Jeol electron microscope-1200 EX11 at 2000× and 30,000× magnification. The Zeiss MOPIII was used to determine microtubule length distributions and mean lengths for at least 100 microtubules per sample.

HuVEC = assay: Action on microtubule function, α-tubulin staining; settings: 2 μM, thirty minutes exposure
HT-29 cells = assay: Additional cytotoxicity assays, resazurin (Table 3.1); type: cell-based, human; settings: Table 3.1
Protocol: (§4) 10× concentrated serial dilutions of the two compounds were prepared in appropriate culture medium for final concentrations ranging from 2.0×10^−5 M to 2.0×10^−10 M. Ten μl volumes of the 10× serial dilutions were added to the test wells in triplicate and the plates returned to the incubator for 48 hours.
(§5) Following 48 hours of drug exposure 10 μl of 0.2 mg/ml resazurin (obtained from Sigma-Aldrich Chemical Co.) in Mg^2+, Ca^2+ free PBS was added to each well and the plates were returned to the incubator for 3-4 hours. […] Resazurin dye without cells was used to determine the background, which was subtracted from the data for all experimental wells. The data were analyzed using Prism software (GraphPad Software).
Additional cytotoxicity assays were performed as described above under this example, using Resazurin fluorescence as an indicator of cell viability.

Trichophyton rubrum = assay: Antifungal susceptibility testing, broth dilution (MIC/MFC); type: cell-based; settings: Trichophyton rubrum
Protocol: as §1, §2, §3

Epidermophyton floccosum = assay: as above; type: cell-based
Protocol: (§6) Specifically, disclosed compounds were evaluated alongside commercially available microtubulin inhibitors as well as recognized antifungal agents. […].
as §2
(§7) Drug concentrations were 0.03-16 μg/ml for the investigational compounds, 0.015-8 μg/ml for itraconazole and griseofulvin.
(§8) The minimum lethal concentration (MLC) was determined by plating […] from the MIC concentration and each concentration above the MIC. […] When a MIC was obtained, a minimum fungicidal concentration (MFC) was determined to assess the fungistatic/fungicidal nature of the compound. […] The compound is scored as fungistatic if the cells are able to resume growth and fungicidal if no regrowth is possible because the compound had killed the organisms.

[1] = test system: Trichophyton mentagrophytes; assay: as above; type: cell-based; settings: Trichophyton mentagrophytes
Protocol: as §6, §2, §7, §8

[2] = test system: HT-29 human colorectal carcinoma cells; assay: Cell growth inhibition assay, resazurin (Table 3.2); type: cell-based; settings: Table 3.2, HT-29 cells, read-out: EC50 (M) Mean
Outline: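 HT-29 cells seeded at 5×10^3/well overnight, then exposed in triplicate to compounds at final 20 μM to […] (0.25% DMSO) for 48 h at 37° C. Viability read by resazurin reduction after 3-4 h further incubation, with cell-free dye background subtracted.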

B16-F10 melanoma = assay: Cell growth inhibition assay, resazurin (Example 11); type: cell-based; settings: Mus musculus, 48 hours, mean ± SD where n ≧ 3
Protocol: (§9) The growth inhibitory activity of NPI-2421, NPI-2463, NPI-2503 and NPI-2504 were determined against selected human (colorectal adenocarcinoma, HT-29; breast adenocarcinoma, MDA-MB-231; non-small cell lung carcinoma, NCI-H292 and prostate carcinomas, PC-3 and DU 145) and mouse (melanoma, B16-F10) tumor cell lines.
(§10) HT-29 (HTB-38), MDA-MB-231 (HTB-26), NCI-H292 (CRL-1848), B16-F10 (CRL-6475), PC-3 (CRL-1435) and DU 145 (HTB-81) cells were all purchased from the ATCC. The cell lines were maintained in their respective ATCC recommended culture media and cultured in an incubator at 37° C. in 5% CO2 and 95% humidified air.
(§11) 20 mM stock solutions of compounds were prepared in 100% DMSO and stored at −80° C. 10× concentrated serial dilutions of the compounds were prepared in B16-F10 cell culture medium for final concentrations ranging from 20 μM to […]. Ten μl volumes of the 10× serial dilutions were added to the test wells in triplicate and the plates returned to the incubator for 48 hours. The final concentration of DMSO was 0.25% in all samples.
(§12) Following 48 hours of drug exposure, 10 μl of 0.2 mg/ml resazurin (obtained from Sigma-Aldrich Chemical Co.) in Mg^2+, Ca^2+ free phosphate buffered saline was added to each well and the plates were returned to the incubator for 3-6 hours. […] Resazurin dye in medium without cells was used to determine the background, which was subtracted from the data for all experimental wells.

[3] = test system: HT-29 colorectal adenocarcinoma; assay: as above; type: cell-based; settings: Homo sapiens, 48 hours, mean ± SD where n ≧ 3
Protocol: as §9, §10, §11, §12

[4] = test system: MDA-MB-231 breast adenocarcinoma; assay: as above; type: cell-based; settings: Homo sapiens, 48 hours, mean ± SD where n ≧ 3
Protocol: as §9, §10, §11, §12

[5] = test system: NCI-H292 non-small cell lung carcinoma; assay: as above; type: cell-based; settings: Homo sapiens, 48 hours, mean ± SD where n ≧ 3, ** n = 1
Protocol: as §9, §10, §11, §12

PC-3 prostate carcinoma = assay: as above; type: cell-based; settings: Homo sapiens, 48 hours, mean ± SD where n ≧ 3, ** n = 1
Protocol: as §9, §10, §11, §12

[6] = test system: MES-SA human uterine sarcoma; assay: as above; type: cell-based; settings: mean ± standard deviation of three independent experiments
Protocol: (§13) Human uterine sarcoma (MES-SA; CRL-1976), its multidrug resistant derivative (MES-SA/Dx5; CRL-1977), human acute promyelocytic leukemia cells (HL-60; CCL-240) and its multidrug resistant derivative (HL-60/MX2; CRL-2257) were purchased from ATCC and maintained in appropriate culture media. The cells were cultured in an incubator at 37° C. in 5% CO2 and 95% humidified air.
(§14) For cell growth inhibition assays, MES-SA and MES-SA/Dx5 cells were both seeded at 3×10^3 cells/well in 90 μl complete media into 96 well (Corning; 3904) black-walled, clear-bottom tissue culture plates and the plates were incubated overnight to allow cells to establish and enter log phase growth. HL-60 and HL-60/MX2 cells were both seeded at 5×10^4 cells/well in 90 μl complete media into 96 well plates on the day of compound addition. 20 mM stock solutions of the compounds were prepared in 100% DMSO and stored at −80° C. […] Ten μl volumes of the 10× serial dilutions were added to the test wells in triplicate and the plates returned to the incubator for 48 hours. The final concentration of DMSO was 0.25% in all samples.
as §12
(§15) The multidrug resistant MES-SA/Dx5 tumor cell line was derived from the human uterine sarcoma MES-SA tumor cell line and expresses elevated P-Glycoprotein (P-gp), an ATP dependent efflux pump. The data in Table 19 summarize the growth inhibitory effects of NPI-2421, NPI-2463, NPI-2503, NPI-2504 and NPI-2506 against MES-SA and its multidrug resistant derivative MES-SA/Dx5. Paclitaxel, a known substrate of the P-gp pump was included as a control.

[7] = test system: MES-SA/Dx5 multidrug resistant; assay: as above; type: cell-based, human; settings: for EC50: Homo sapiens, MES-SA/Dx5, mean ± standard deviation of three independent experiments; for cytotoxic activity against both MES-SA and MES-SA/Dx5: in words; for Fold change: ratio of EC50 values (MES-SA/Dx5:MES-SA)
Protocol: as §13, §14, §12, §15

[8] = test system: HL-60 human acute promyelocytic leukemia cells; assay: as above; type: cell-based; settings: mean values of two independent experiments
Protocol: as §13, §14, §12
(§16) HL-60/MX2 is a multidrug resistant tumor cell line derived from the human promyelocytic leukemia cell line, HL-60 and expresses reduced topoisomerase II activity. The data presented in Table 20 summarize the growth inhibitory effects of NPI-2421, NPI-2463, NPI-2503, NPI-2504 and NPI-2506 against HL-60 and its multidrug resistant derivative HL-60/MX2. Mitoxantrone, the topoisomerase II targeting agent was included as a control.

[9] = test system: HL-60/MX2 multidrug resistant; assay: as above; type: cell-based, human; settings: for EC50: Homo sapiens, HL60/MX2, HL-60/MX2, mean values of two independent experiments; for cytotoxic activity against both HL-60 and HL-60/MX2: in words; for Fold change: ratio of EC50 values (HL-60/MX2:HL-60)
Protocol: as §13, §14, §12, §16

Aspergillus fumigatus = assay: Antifungal susceptibility testing, broth dilution (MIC/MFC); type: cell-based; settings: Aspergillus fumigatus, A. fumigatus isolate #2; read-out: MIC
Protocol: as §1, §2, §3

HT-29 human colon cells = assay: Tumor cytotoxicity assay, resazurin fluorescence, 48 h (Example 6); type: cell-based; settings: Homo sapiens, HT-29, read-out: EC50 (nM) HT29, Table 1
[10] = test system: PC-3 prostatic adenocarcinoma cells; assay: as above; type: cell-based, human; settings: Homo sapiens, read-out: EC50 (nM) PC-3
Protocol: as §4, §5
PC-3, a human prostate adenocarcinoma, was maintained in F12K complete medium (F12K medium supplemented with 10% FBS; 2 mM Glutamine; 1% HEPES; and Pen/Strep at 100 IU/ml and 100 µg/ml, respectively).

Structure (SMILES)	MIC (Trichophyton rubrum; T. rubrum isolate #1)	MIC (Trichophyton rubrum; T. rubrum isolate #2)	MIC (Epidermophyton floccosum; E. floccosum isolate #1)	MIC (Epidermophyton floccosum; E. floccosum isolate #2)	MIC ([1]; T. mentagrophytes isolate #1)	MIC ([1]; T. mentagrophytes isolate #2)	EC50 [2]	EC50 (B16-F10 melanoma)	EC50 [3]	EC50 [4]	EC50 [5]	EC50 (PC-3 prostate carcinoma)	EC50 [6]	EC50 [7]	cytotoxic activity against both MES-SA and MES-SA/Dx5 [7]	Fold change [7]	EC50 [8]	EC50 [9]	cytotoxic activity against both HL-60 and HL-60/MX2 [9]	Fold change [9]	also measured
COc1cc2c(c(OC)c1OC)-c1ccc(OC)c(=O)cc1[C@@H](NC(C)=O)CC2 [Colchicine]	–	–	–	–	–	–	–	–	–	–	–	–	–	–	–	–	–	–	–	–	MIC (Candida albicans; C. albicans 10231): >128 mg/L; MIC (Candida albicans; Candida albicans, C. albicans 90028, read-out: MIC): > 128 mg/L; MIC (Candida glabrata): > 128 mg/L; MT nucleation (MAP-rich microtubules): did not affect MT nucleation; microtubule depolymerization in HuVEC cells (HuVEC): induced microtubule depolymerization
CC(C)(C)c1[nH]cnc1/C=C1\NC(=O)[C@H](Cc2ccccc2)NC1=O [Compound 2460, (−)-tBu-PLH]	< 0.03 mg/L	< 0.03 mg/L	> 16 mg/L	> 16 mg/L	4 mg/L (≈ 11.8 µM)	> 16 mg/L	–	–	–	–	–	–	–	–	–	–	–	–	–	–	EC50 (HT-29 cells; Homo sapiens, HT-29, read-out: EC50 (M) Mean): 2.55e-07 M; % cytotox Mean (HT-29 cells): 87%; MFC (Trichophyton rubrum; T. rubrum isolate #1): 0.125 mg/L (≈ 0.369 µM); MFC (Trichophyton rubrum; T. rubrum isolate #2): < 0.03 mg/L; MFC ([1]; T. mentagrophytes isolate #1): > 16 mg/L
CC(C)(C)c1ocnc1/C=c1\[nH]c(=O)/c(=C/c2cc(F)cc(F)c2F)[nH]c1=O [Compound 2503, tBu-oxadelta-PLH-2,3,5-trifluoro]	–	–	–	–	–	–	1.14e-08 M	0.016 ± 0.002 µM	0.017 µM	0.021 µM	0.052 µM	> 2 µM	0.013 ± 0.003 µM	0.013 ± 0.003 µM	retained equivalent cytotoxic activity	1.0	0.028 µM	0.019 µM	retained cytotoxic activity	0.7	–
CC(C)(C)c1ocnc1/C=c1\[nH]c(=O)/c(=C/c2c(F)c(F)cc(F)c2F)[nH]c1=O [Compound 2504, tBu-oxadelta-PLH-2,3,5,6-tetrafluoro]	–	–	–	–	–	–	1.48e-08 M	0.014 ± 0.003 µM	0.011 µM	0.017 µM	0.042 µM	> 2 µM	0.013 ± 0.003 µM	0.014 ± 0.003 µM	retained equivalent cytotoxic activity	1.1	0.03 µM	0.013 µM	retained cytotoxic activity	0.4	–
COC1=CC(=O)C[C@@H](C)[C@]12Oc1c(Cl)c(OC)cc(OC)c1C2=O [griseofulvin, Griseofulvin, reference compound]	0.5 mg/L (≈ 1.42 µM)	< 0.015 mg/L	2 mg/L (≈ 5.67 µM)	4 mg/L (≈ 11.3 µM)	1 mg/L (≈ 2.83 µM)	2 mg/L (≈ 5.67 µM)	–	–	–	–	–	–	–	–	–	–	–	–	–	–	MIC (Aspergillus fumigatus): 0.5 mg/L (≈ 1.42 µM)
CC(C)(C)c1[nH]cnc1/C=c1\[nH]c(=O)/c(=C/c2ccccc2)[nH]c1=O [tBu-ΔPLH]	–	–	–	–	–	–	–	–	–	–	–	–	–	–	–	–	–	–	–	–	EC50 (HT-29 human colon cells): 13 nM; EC50 [10]: 1 nM
